The record followed here is patent US5674906A, “Stilbene compounds and pharmaceutical compositions containing them” (Ajinomoto Co., Inc., priority 1995, dated 1997).

Data set [1] is described as follows: Minimum dose which shows death immediately after injection (toxic dose). In kind it is in vivo, mice. Particulars: acute death immediately after injection.
The subject of the next data set is Colon 26. The experiment in a line: Test for the pharmaceutical effect on mice: tumor growth inhibition of subcutaneously implanted Colon 26. Particulars: Mus musculus, Colon 26, iv, 504 h, read-out: in vivo I.R. (tumor growth inhibition rate). The method, then:
Test for the Pharmaceutical Effect on Mice:
Colon 26 which had been cloned subcutaneously in mice was cut with scissors, and implanted subcutaneously in mice by means of a trocar. One week later, the tumors were measured using calipers, and the volumes of the tumors were calculated. The mice were grouped (each group consisting of 3 mice). The test compound was dissolved with dimethylsulfoxide and diluted with 5% by volume Tween 80/saline. A 0.2 ml of the solution was injected intravenously once a day on Day 7, Day 11 and Day 15 after the implantation. On Day 21 after the implantation, the volumes of the tumors were measured. The volume of the tumor and the tumor growth inhibition rate (I.R.) were calculated using the following expressions. [formula]
^a) Administered intravenously once a day on day 7, day 11 and day 15

In data set [2] the test system is Mouse P388 leukemia cells. Nature of the data set: Evaluation of cytotoxicity: growth inhibition of mouse P388 leukemia cells (MTT method). In kind it is cell-based. Particulars: 48 h, 37° C., 2 days, read-out: in vitro IC50 (50% growth inhibitory concentration). The method, then: Evaluation of Cytotoxicity:
Mouse P388 leukemia cells were used as cancer cells, and a RPMI-1640 medium containing 5-μM 2-mercaptoethanol and 10% fetal bovine serum was used in the incubation. The above-mentioned cells were inoculated on a 96-well microplate in an amount of 1×10^4 cells/50 μl/well, and an aqueous solution of a test compound (4 μg/ml) was added thereto in an amount of 25 μl/well. The mixture was incubated at 37° C. for 2 days. Then, the number of live cells were counted using the MTT method, and a dose-response curve was then prepared. A 50% growth inhibitory concentration (IC50) given for the test compound was calculated according to the dose-response curve.
A general note: Tetrazolium dyes change colour on reduction, which living cells bring about.

Setting [3] is: 80 mg/kg, intravenously once a day on day 7, day 11 and day 15, tumor volume on Day 21.
Where [4] appears, read: 40 mg/kg, intravenously once a day on day 7, day 11 and day 15, tumor volume on Day 21.
[5] abbreviates: 10 mg/kg, intravenously once a day on day 7, day 11 and day 15, tumor volume on Day 21.

The structures appear in SMILES notation. In brackets after ≈: the same amount, converted by molar mass. Structures can show the parent of a compound that is named as a salt. Where two headings read alike, the source gives them in different places.

As a reminder, the inhibition in vivo is the share of the control response that was lost under treatment. `COc1ccc(/C=C\c2cc(OC)c(OC)c(OC)c2)cc1NC(=O)[C@H](C)N` [(Z)-1-(3-Amino-4-methoxyphenyl)-2-(3,4,5-trimethoxyphenyl)-ethene-L-alanineamide]: the “Toxic Dose (minimum dose which show death immediately after injection)” value (from here on “Toxic Dose”) in data set [1] is recorded as 80 mg/kg. Further, in the data set with Colon 26, the inhibition in vivo at 40 mg/kg was determined as 51.9%. Further, the IC50 in data set [2] amounted to 2 ng/mL (≈ 5.18 nM).

Take `COc1ccc(/C=C(/C#N)c2cc(OC)c(OC)c(OC)c2)cc1NC(=O)[C@H](C)N` [(E)-3-(3-Amino-4-methoxyphenyl)-2-(3,4,5-trimethoxyphenyl)-prop-2-enenitrile-L-alanineamide Hydrochloride]: the “Toxic Dose” value in data set [1] came out at 80 mg/kg. Also, the inhibition in vivo at 20 mg/kg in the data set on Colon 26 (20 mg/kg, intravenously once a day on day 7, day 11 and day 15, tumor volume on Day 21) was found to be 71%. In data set [2], the IC50 was determined as 0.5 ng/mL.

Turning to `COc1ccc(/C=C\c2cc(OC)c(OC)c(OC)c2)cc1NC(=O)CN` [(Z)-1-(3-Amino-4-methoxyphenyl)-2-(3,4,5-trimethoxyphenyl)-ethene-glycineamide], in data set [1], the “Toxic Dose” value is 80 mg/kg. The inhibition in vivo at 40 mg/kg with Colon 26 stood at 33.3%. For the same compound, in data set [2], the IC50 is 2 ng/mL (≈ 5.37 nM).

On to `COc1ccc(/C=C(/C#N)c2cc(OC)c(OC)c(OC)c2)cc1NC(=O)CN` [(E)-3-(3-Amino-4-methoxyphenyl)-2-(3,4,5-trimethoxyphenyl)-prop-2-enenitrile-glycineamide Hydrochloride], for which, in data set [1], the “Toxic Dose” value worked out at 40 mg/kg. Besides, the inhibition in vivo at 20 mg/kg with Colon 26 was 85.7%. In data set [2], the IC50 came out at 3 ng/mL.

Consider `COc1ccc(/C=C(/C#N)c2cc(OC)c(OC)c(OC)c2)cc1NC(=O)[C@@H](N)CO` [(E)-3-(3-Amino-4-methoxyphenyl)-2-(3,4,5-trimethoxyphenyl)-prop-2-enenitrile-L-serineamide Hydrochloride], for which the inhibition in vivo at 80 mg/kg in the data set with Colon 26 (setting [3]) was 75%. Also, the IC50 in data set [2] was 2 ng/mL.

`COc1ccc(/C=C(/C#N)c2cc(OC)c(OC)c(OC)c2)cc1NC(=O)[C@@H](N)CCCN` [(E)-3-(3-Amino-4-methoxyphenyl)-2-(3,4,5-trimethoxyphenyl)-prop-2-enenitrile-L-ornithineamide Dihydrochloride]: the inhibition in vivo at 10 mg/kg with Colon 26 is 48.9%. The IC50 in data set [2] worked out at 50 ng/mL.

For the compound `COc1ccc(/C=C(/C#N)c2cc(OC)c(OC)c(OC)c2)cc1NC(=O)[C@@H](N)Cc1ccccc1` [(E)-3-(3-Amino-4-methoxyphenyl)-2-(3,4,5-trimethoxyphenyl)-prop-2-enenitrile-L-phenylalanineamide Hydrochloride], the “Toxic Dose” value in data set [1] was determined as 80 mg/kg. Further, in the data set with Colon 26 (setting [4]), the inhibition in vivo at 40 mg/kg stood at 76.7%. For the same compound, in data set [2], the IC50 came to 5 ng/mL.

For the compound `COc1ccc(/C=C(/C#N)c2cc(OC)c(OC)c(OC)c2)cc1NC(=O)[C@@H]1CCCN1` [(E)-3-(3-Amino-4-methoxyphenyl)-2-(3,4,5-trimethoxyphenyl)-prop-2-enenitrile-L-prolineamide Hydrochloride], the “Toxic Dose” value in data set [1] worked out at 40 mg/kg. Moreover, in the data set with Colon 26 (setting [4]), the inhibition in vivo at 40 mg/kg worked out at 68.9%. Also, the IC50 in data set [2] turned out to be 200 ng/mL.

In the case of `COc1ccc(/C=C(/C#N)c2cc(OC)c(OC)c(OC)c2)cc1NC(=O)[C@@H](N)CC(=O)O` [(E)-3-(3-Amino-4-methoxyphenyl)-2-(3,4,5-trimethoxyphenyl)-prop-2-enenitrile-L-aspartylamide Hydrochloride], in data set [1], the “Toxic Dose” value was 40 mg/kg. In the data set on Colon 26 (setting [5]), the inhibition in vivo at 10 mg/kg was 1.7%. The IC50 in data set [2] was 2 ng/mL.

With `COc1ccc(/C=C(/C#N)c2cc(OC)c(OC)c(OC)c2)cc1NC(=O)[C@@H](N)[C@@H](C)O` [(E)-3-(3-Amino-4-methoxyphenyl)-2-(3,4,5-trimethoxyphenyl)-prop-2-enenitrile-L-threonineamide Hydrochloride], the inhibition in vivo at 40 mg/kg in the data set on Colon 26 (setting [4]) is 67%. Further, in data set [2], the IC50 was determined as 6 ng/mL.

As to `COc1ccc(/C=C(/C#N)c2cc(OC)c(OC)c(OC)c2)cc1NC(=O)[C@@H](N)CCCCN` [(E)-3-(3-Amino-4-methoxyphenyl)-2-(3,4,5-trimethoxyphenyl)-prop-2-enenitrile-L-lysineamide Dihydrochloride], the “Toxic Dose” value in data set [1] was determined as 20 mg/kg. Further, the inhibition in vivo at 10 mg/kg in the data set on Colon 26 (setting [5]) amounted to 33.8%. Besides, the IC50 in data set [2] is 13 ng/mL.

As for `COc1ccc(/C=C(/C#N)c2cc(OC)c(OC)c(OC)c2)cc1NC(=O)[C@@H](N)CCC(=O)O` [(E)-3-(3-Amino-4-methoxyphenyl)-2-(3,4,5-trimethoxyphenyl)-prop-2-enenitrile-L-glutamylamide Hydrochloride], the “Toxic Dose” value in data set [1] came to 80 mg/kg. Also, the inhibition in vivo at 40 mg/kg in the data set on Colon 26 (setting [4]) worked out at 77%. In addition, in data set [2], the IC50 turned out to be 4 ng/mL.

With `COc1ccc(/C=C\c2cc(OC)c(OC)c(OC)c2)cc1NC(=O)[C@@H](N)[C@@H](C)O` [(Z)-1-(3-Amino-4-methoxyphenyl)-2-(3,4,5-trimethoxyphenyl)-ethene-L-threonineamide], in the data set with Colon 26, the inhibition in vivo at 80 mg/kg worked out at 62.2%. For the same compound, the IC50 in data set [2] was 6 ng/mL (≈ 14.4 nM).

For the compound `COc1ccc(/C=C\c2cc(OC)c(OC)c(OC)c2)cc1NC(=O)[C@@H](N)CO` [(Z)-1-(3-Amino-4-methoxyphenyl)-2-(3,4,5-trimethoxyphenyl)-ethene-L-serineamide], the inhibition in vivo at 80 mg/kg in the data set on Colon 26 (setting [3]) was found to be 72.9%. In addition, the IC50 in data set [2] was 4 ng/mL (≈ 9.94 nM).

With `COc1ccc(/C=C\c2cc(OC)c(OC)c(OC)c2)cc1NC(=O)[C@@H](N)CC(C)C` [(Z)-1-(3-Amino-4-methoxyphenyl)-2-(3,4,5-trimethoxyphenyl)-ethene-L-leucineamide], the “Toxic Dose” value in data set [1] came out at 40 mg/kg. Further, the inhibition in vivo at 40 mg/kg in the data set on Colon 26 turned out to be 50.9%. The IC50 in data set [2] came to 6 ng/mL (≈ 14 nM).
